Assay results: article PMC12384620, “Hit-to-Lead Studies of Pyrazinylpiperazines against Visceral Leishmaniasis: Pharmacokinetic Profile and In Vivo Efficacy of Potent Compounds against Leishmania infantum” (ACS Pharmacology & Translational Science, 2025)
Like-named read-outs stand apart in the source and are kept apart here.

What was measured:
L. braziliensis SOD = assay: SOD interaction by differential scanning fluorimetry; assay type: binding, Leishmania braziliensis
Description: (§1) The assays were performed using an Applied Biosystems 7500 Fast RT-PCR system (Applied Biosystems, Foster City, CA, USA), in triplicate, with 96-well PCR plates (BioRad, Hercules, CA, USA) sealed with transparent capping strips (BioRad, Hercules, CA, USA). The plates were centrifugated for 2 min at 2000 rpm at 25 °C. The temperature was then ramped up from 25 to 85 °C, increasing 1 °C per minute, while fluorescence signals were monitored using SYPRO Orange dye, with an excitation wavelength of 492 nm and an emission wavelength of 610 nm.
(§2) The DSF conditions used in this study have been previously described. , Briefly, each well contained 10 μM L. braziliensis Hsp90 or 5 μM L. braziliensis SOD, 1 μL of 5X SYPRO Orange, buffer A (50 mM PBS, 100 mM NaCl, pH 7.0 for L. braziliensis SOD or 50 mM Tris-HCl, 100 mM KCl, pH 8.0 for L. braziliensis Hsp90), and either 1 μL DMSO (5% v/v, negative control) or 1 – 6 (diluted in DMSO). […] Raw fluorescence data was collected using the Applied Biosystems 7500 Fast Software v2.0 and then exported to NAMI for Tm calculation via the first-derivative method. Differences in Tm values (ΔTm) were considered statistically significant when p < 0.05, as determined by the Kruskal–Wallis test followed by Dunn’s post-test for multiple comparisons, performed using GraphPad Prism 10.0 (GraphPad Software, San Diego, CA, USA, www.graphpad.com).

L. braziliensis Hsp83 = assay: Hsp83 interaction by differential scanning fluorimetry; assay type: binding, Leishmania braziliensis
Description: as §1, §2

[1] = PAMPA gastrointestinal tract permeability; assay type: in vitro ADME; details: for Papp at 8 h, 0.5 mM: PAMPA-GI, read-out: GI Pe
Description: A 10 mM solution of each compound in DMSO was prepared and subsequently homogenized in a 5 mL flask with 4.75 mL PBS (pH 6.6) (10 mM). […] 180 μL of a PBS (pH 7.4)/DMSO (95:5) solution were then added to the wells of a 96-well receiver plate, and 5 μL of a L-α-phosphatidylcholine solution (20 mg/mL in dodecane) to the wells of a 96-well donor plate. After 5 min, 180 μL of the solutions containing each compound were added to the wells of the donor plate, in triplicate, and the donor plate was carefully placed over the receiver plate in a “sandwich-like” system, which was left stirring (50 rpm) for 8 h at rt in a sealed vessel containing 10 mL PBS (pH 7.4). Afterward, the donor plate was removed, and the content of the receiver plate was transferred to a UV reading plate, which was read using a microplate reader (SpectraMax 5 – Molecular Devices). A reference sample for the internal correction of the microplate reader was prepared using 180 μL of the PBS (pH 7.4)/DMSO (95:5) solution (adapted from refs and ). The optical density values obtained from the content of the receiver plate were compared with the ones obtained from readings performed with the initial solutions containing each compound, before their addition to the donor plate. […] The optical density values from the receptor plate were compared to those from experimental controls to determine the F a value for each compound, using Microsoft Excel.

L. braziliensis = assay: Inhibition of growth of L. braziliensis in THP-1 macrophages; assay type: cell-based; details: Leishmania braziliensis
Description: 1 In Vitro Antileishmanial Potency, Selectivity Index, and ADME Properties of Compounds 1 – 6 | column: L. braziliensis IC50 (μM)^b (SI)^b

L. infantum::tdTomato = assay type: in vivo, mouse; details: for parasitemia reduction in the spleen / parasitemia reduction in the liver: 20 dpi, vs untreated control
Description: BALB/c mice (male, 6 to 8 weeks old, 18 to 20 g) were inoculated intravenously (tail vein) with 2 × 10^7 late-log-phase L. infantum promastigotes from Li::tdTomato lines, and randomly assigned into one of the four treatment groups (six mice per group). After 7 days of infection, […] was administered intraperitoneally in a single dose 500 mg/kg/day meglumine antimoniate (Glucantime, Sanofi Medley), both groups treated with 2 received two daily intraperitoneal injections totaling either 50 mg/kg/day or 100 mg/kg/day of 2, and the control group was administered the vehicle solution. For the intraperitoneal injection, 2 was formulated as follows: a stock solution of 2 in DMSO (100 mg/mL) was prepared daily, and a solution of 70% PBS1X, 20% PEG 400 (Polyethylene Glycol 400, Sigma-Aldrich), 0.16% Tween 80 and 10% of 2 (from the stock solution) was prepared. The control group was also administered this solution, replacing 2 with 10% DMSO. All mice were euthanized 3 days after the end of the treatment, and the liver and spleen of each animal were collected.
The number of viable parasites in each organ was determined using a quantitative limiting dilution assay. Briefly, the organs were macerated using an Ultra-Turrax disperser (IKA-Werke GmbH & Co. KG., Staufen, Germany), and a tissue homogenate was obtained with 1 mL of M199 medium. Each tissue homogenate was sequentially diluted (10-fold) in 96-well flat-bottom microtiter black plates and incubated at 26 °C for 10 days. The wells containing motile promastigotes were identified with an inverted microscope (Axiovert 25, Zeiss), and the parasite burden was determined from the highest dilution at which promastigotes had grown after 10 days of incubation.

[2] = Experimental lipophilicity elog(D) at pH 7.4 by retention time; assay type: physicochemical; details: pH 7.4, chromatographic
Description: The analysis was performed using LC-MS/MS (liquid chromatography-tandem mass spectrometry). The chromatography system used was a Prominence UFLC (Shimadzu Corporation, Kyoto, Japan), interfaced with a LCMS-8045 triple quadrupole mass spectrometer (Shimadzu Corporation, Kyoto, Japan) equipped with an electrospray ionization source (ESI).
For the determination of the distribution coefficient (elog(D)), a methodology based on the retention time of molecules in the stationary phase was used. The chromatogram was achieved on a Supelco Ascentis express RP amide HPLC column (5 cm x 2.1 mm, […]), using 5% methanol in 10 mM ammonium acetate pH 7.4 (A) and 100% methanol (B) as mobile phases. The mobile phase was eluted in binary gradient mode, as follows: 0 min: 95% A; 0.3 min: 100% A; 5.2 min: 0% A; 5.6 min: 0% A; 5.8 min: 100% A; 7.0 min: 100% A. The total run time was 7 min, and 5 μL of each sample were injected. The solutions of tested compounds were prepared at a concentration of 1.0 mg/mL in compound by adding the stock solution to a (1:1) mix of mobile phases A:B (internal standard at 200 nM), and the DMSO concentration was lower than 2%. […]

SMILES	interaction with L. braziliensis SOD (DSF titration curves) (L. braziliensis SOD; 100 μM to 12.5 μM)	interaction with L. braziliensis Hsp83 (DSF titration curves) (L. braziliensis Hsp83; 100 μM to 12.5 μM)	Fa, fraction absorbed (GI) [1] [%]	Papp at 8 h, 0.5 mM [1] [×10⁻⁶ cm/s]	IC50 (L. braziliensis) [µM]	parasitemia reduction in the spleen (L. infantum::tdTomato; 50 mg/kg/day i.p., 10 days) [%]	parasitemia reduction in the liver (L. infantum::tdTomato; 50 mg/kg/day i.p., 10 days, not significant) [%]	parasitemia reduction in the liver (L. infantum::tdTomato; 100 mg/kg/day i.p., 10 days) [%]	parasitemia reduction in the spleen (L. infantum::tdTomato; 100 mg/kg/day i.p., 10 days) [%]	parasitemia reduction (L. infantum::tdTomato; 100 mg/kg/day, 7-day treatment (as printed in the conclusion))	death among treated mice (L. infantum::tdTomato; 50 and 100 mg/kg/day i.p., 10 days)	external signs of acute toxicity during and after treatment (L. infantum::tdTomato; 50 and 100 mg/kg/day i.p., 10 days, infected BALB/c mice)	effect on Tm of L. braziliensis SOD (DSF) (L. braziliensis SOD; 100 μM)	elog(D) [2]	effect on Tm of L. braziliensis Hsp83 (DSF) (L. braziliensis Hsp83; 100 μM)
O=C(c1ccc(O)c(Cl)c1)N1CCN(c2cnccn2)CC1 [Compound 1, (3-Chloro-4-hydroxyphenyl)(4-(pyrazin-2-yl)piperazin-1-yl)methanone]	neither of these compounds interacts	neither of these compounds interacts	99.26	12.9	11.7 ± 0.7										
O=C(c1ccc(O)cc1)N1CCN(c2cnccn2)CC1 [Compound 2, (4-Hydroxyphenyl)(4-(pyrazin-2-yl)piperazin-1-yl)methanone]			62.71	2.59	7.6 ± 3.2	80.0	44.4	90.0	91.1	over 90%	No death	No external signs of acute toxicity	failed to exert statistically significant effects	1.64	failed to exert statistically significant effects
